According to patent US6613765B1, “Use of NK-1 receptor antagonists for treating major depressive disorders” (Merck Sharp & Dohme Limited, priority 1996, dated 2003):

Columns and labels:
[1] = tested on: foot tapping in gerbils induced by central injection of an NK1 agonist; experiment: Gerbil foot-tapping induced by central infusion of NK-1 receptor agonist GR73632; assay type: in vivo, Mongolian gerbils; details: i.v.
Description: ASSAY 2: Gerbil Foot-tapping
CNS-penetrant NK-1 receptor antagonists for use in the present invention can be identified by their ability to inhibit foot tapping in gerbils induced by anxiogenic agents (such as pentagastrin) or central infusion of NK-1 receptor agonists such as GR73632, or caused by aversive stimulation such as foot shock or single housing, based on the method of Rupniak & Williams, Eur. J. Pharmacol., 1994, 265, 179.
Male or female Mongolian gerbils (35-70 g) are anaesthetised by inhalation of an isoflurane/oxygen mixture to permit exposure of the jugular vein in order to permit administration of test compounds or vehicle in an injection volume of 5 ml/kg i.v. Alternatively, test compounds may be administered orally or by subcutaneous or intraperitoneal routes. A skin incision is then made in the midline of the scalp to expose the skull. […]

[2] = tested on: separation-induced vocalisations by guinea-pig pups; experiment: Separation-induced vocalisation in guinea-pig pups; assay type: in vivo; details: p.o.
Protocol: ASSAY 4: Separation-induced Vocalisation
On test days each pup receives an oral dose or an s.c. or i.p. injection of test compound or vehicle and is then immediately returned to the home cage with its mother and siblings for 30 to 60 minutes (or for up to 4 hours following an oral dose, dependent upon the oral pharmacokinetics of the test compound) before social isolation for 15 minutes as described above. […] Between 6 and 8 animals receive each test compound at each dose tested.

human NK-1 receptor = biological target: T1, human NK-1 receptor (Homo sapiens, UniProt P25103); experiment: NK-1 receptor binding (125I-Tyr8-substance P, intact CHO cells); details: CHO cells expressing the human NK-1 receptor
T1 construct: expressed in transfected cells; host or cells: CHO (Chinese hamster ovary) cells, intact
T1 sequence (P25103 whole entry): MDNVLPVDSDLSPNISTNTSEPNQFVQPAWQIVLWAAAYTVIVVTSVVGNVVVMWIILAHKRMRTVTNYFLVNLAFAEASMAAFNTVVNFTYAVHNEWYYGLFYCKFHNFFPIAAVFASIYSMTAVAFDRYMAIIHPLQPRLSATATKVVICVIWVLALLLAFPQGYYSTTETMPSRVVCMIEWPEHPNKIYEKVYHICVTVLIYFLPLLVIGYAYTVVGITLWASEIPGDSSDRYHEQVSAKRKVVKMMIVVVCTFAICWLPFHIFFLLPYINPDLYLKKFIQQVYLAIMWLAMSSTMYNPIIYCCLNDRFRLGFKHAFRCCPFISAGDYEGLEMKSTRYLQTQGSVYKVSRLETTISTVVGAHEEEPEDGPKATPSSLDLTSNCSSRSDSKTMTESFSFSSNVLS
Protocol: NK-1 receptor binding assays are performed in intact Chinese hamster ovary (CHO) cells expressing the human NK-1 receptor using a modification of the assay conditions described by Cascieri et al, J. Pharmacol. Exp. Ther., 1992, 42, 458. Typically, the receptor is expressed at a level of 3×10^5 receptors per cell. Cells are grown in monolayer culture, detached from the plate with enzyme-free dissociation solution (Speciality Media Inc.), and washed prior to use in the assay. ^125I-Tyr^8-substance P (0.1 nM, 2000 Ci/mmol; New England Nuclear) is incubated in the presence or absence of test compounds (dissolved in 5 μl dimethylsulphoxide, DMSO) with 5×10^4 CHO cells. Ligand binding is performed in 0.25 ml of 50 mM Tris-HCl, pH 7.5, containing 5 mM MnCl2, 150 mM NaCl, 0.02% bovine serum albumin (Sigma), 50 μg/ml chymostatin (Peninsula), 0.1 nM phenylmethylsulphonyl fluoride, 2 μg/ml pepstatin, 2 μg/ml leupeptin and 2.8 μg/ml furoyl saccharine. The incubation proceeds at room temperature until equilibrium is achieved (>40 minutes) and the receptor-ligand complex is harvested by filtration over GF/C filters pre-soaked in 0.1% polyethylenimine using a Tomtek 96-well harvester. Non-specific binding is determined using excess substance P (1 μM and represents <10% of total binding.

For `Cl.FC(F)(F)Oc1ccc(OC2CC2)c([C@H]2CO[C@]3(CCCN[C@H]3c3ccccc3)C2)c1`, the melting point was 214 to 216 °C.
With `OC[C@@H](O[C@H]1OCCN(Cc2nc[nH]n2)[C@H]1c1ccc(F)cc1)c1cc(C(F)(F)F)cc(C(F)(F)F)c1` [2-(R)-(1-(S)-(3,5-bis(trifluoromethyl)phenyl)-2-hydroxyethoxy)-3-(S)-(4-fluorophenyl)-4-(1,2,4-triazol-3-yl)methylmorpholine] the “gerbil foot-tapping (5 mins.): ID50” value ([1]; 5 mins.) was “ID50 = 0.38 mg/kg i.v”, the “gerbil foot-tapping (24 hrs.): ID60” value ([1]; 24 hrs. prior to agonist challenge) was “ID60 = 2.2 mg/kg i.v” and the “guinea-pig vocalisation (4 hr. pre-treatment): ID50” value [2] was “ID50 = 0.91 mg/kg p.o”. The IC50 (human NK-1 receptor) was 0.12 nM.
